In patent US20050227941A1, “Sequestration of ass in the periphery in the absence of immunomodulating agent as a therapeutic approach for the treatment or prevention of beta-amyloid related diseases” (priority 2001, published 2005):

Assays:
Assay type in all cases: in vivo
Aβ42 [1] = target: T1, Aβ42 (Homo sapiens, UniProt P05067); experiment: Brain Aβ42 (70% formic acid extract, ELISA) after one week of daily CG injection in PS/APP mice; settings: 20 mg/kg ip every day for one week, sacrificed at 12 weeks, vehicle 1209 ± 292, not statistically significant
T1 construct: from tissue; host or cells: brain (70% formic acid extract) and plasma of PS/APP transgenic mice
T1 sequence (P05067 672-713 limits assumed): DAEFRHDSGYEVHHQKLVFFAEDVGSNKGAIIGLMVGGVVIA
Protocol: (§1) Following a oneweek wash out period, the effect in brain AD level after continuous injection was examined. PS/APP mice were injected every day for one week into the periphery, with either CG (number of mice=3) (20 mg/kg, ip,) or vehicle (phosphate buffered saline) (number of mice=2), at 11 weeks of age, an age when amyloid pathology in the brain is not visible. The mice were sacrificed at 12 weeks of age, an age when amyloid deposition has been initiated and measurable levels of Aβ are present in the vehicle treated controls.
(§2) The levels of Aβ in the peripheral blood were tested at the end of the administration period. The levels of Aβ peptides (e.g., Aβ40 or Aβ42) in the brain and plasma were assessed by ELISA assay. All of the Aβ in the brain (including Aβ in plaques) was extracted in 70% formic acid (FA). The levels of Aβ peptides in CG treated mice were compared with those of vehicle treated controls. […] This correlates with a statistically significant increase in peripheral Aβ40 and Aβ42 at the same time point.

Aβ42 [2] = target: T1, Aβ42; experiment: Plasma Aβ42 level after one week of daily CG injection in PS/APP mice (ELISA); settings: 20 mg/kg ip every day for one week from 11 weeks of age, vehicle = 100 ± 9
Protocol: as §1, §2

Aβ42 [3] = target: T1, Aβ42; experiment: Plasma Aβ42 level over time after a single injection of CG in PS/APP mice (ELISA); settings: single injection 20 mg/kg
Text: In this Example, as in Example 1, transgenic mice that develop AD-related amyloidosis, (i.e., PS/APP mice; See, L. Holcomb et al., 1998, Nature Med., 4(1):97-100) were used to assess the Aβ-binding compound chrysamine G (CG) in the peripheral sequestration of Aβ according to this invention, and to determine how the peripheral sequestration of Aβ by this compound affected brain Aβ levels. CG is known to bind Aβ strongly, and is less brain permeable than GM1.
PS/APP mice at 10 weeks of age were injected once either with CG (number of mice=3, dosage: 20 mg/kg) or vehicle (phosphate buffered saline, number of mice=2) into the blood stream. […] […] The levels of Aβ peptides (Aβ40 or Aβ42) in the plasma were assessed by ELISA immunoassay. The levels of Aβ peptides in the periphery, i.e., plasma, of CG treated mice were compared with plasma Aβ levels in pretreatment mice at various time points.
Changes in plasma load of Aβ42 after injection with CG were compared to the plasma Aβ level at pretreatment time points. As can be observed, there was a significant increase in plasma Aβ levels after injection of CG.

Aβ40 [4] = target: T2, Aβ40 (Homo sapiens, UniProt P05067); experiment: Brain Aβ40 (70% formic acid extract, ELISA) after one week of daily CG injection in PS/APP mice; settings: 20 mg/kg ip every day for one week, sacrificed at 12 weeks, vehicle 926 ± 26
T2 construct: from tissue; host or cells: brain (70% formic acid extract) and plasma of PS/APP transgenic mice
T2 sequence (P05067 672-711 limits assumed): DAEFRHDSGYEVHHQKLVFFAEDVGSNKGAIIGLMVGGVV
Protocol: as §1, §2

Aβ40 [5] = target: T2, Aβ40; experiment: Brain Abeta40 load (70% formic acid extract, ELISA) in PS/APP mice after peripheral GM1 or gelsolin; settings: 1 week wash-out; for brain Abeta load, Abeta40: ip every two days for two weeks from 9 weeks of age, sacrificed at 12 weeks, FA-soluble brain fraction; for brain Abeta40 load compared with controls (vehicle): ip every two days for two weeks, % of vehicle
Protocol: (§3) Transgenic mice that develop AD-related amyloidosis, (i.e., PS/APP mice; See, L. Holcomb et al., 1998, Nature Med., 4(1):97-100) were used for the studies described in this Example to assess how peripheral sequestration of Aβ affected brain Aβ levels. […] In addition, a second compound, gelsolin, which is too large to cross the blood/brain barrier (BBB), and is completely unrelated to GM1, but which is also known to bind Aβ with great avidity, was administered peripherally to confirm the universality of the mechanism.
(§4) PS/APP mice were injected every two days for two weeks either with GM1 (number of mice=6) (15 mg/kg, ip,), with gelsolin (number of mice=3) (60 μg/kg, ip), or with vehicle, (phosphate buffered saline), (number=7), into the periphery at 9 weeks of age, an age when amyloid pathology in the brain is not visible. The mice were left for 1 week without injections (the “wash-out” period) and were then sacrificed at 12 weeks of age, an age when amyloid deposition has been initiated and measurable levels of Aβ are present in the vehicle treated controls.
(§5) The levels of Aβ in the peripheral blood were tested at three time points during the drug administration period (i.e., after 1 week of injections; after two weeks of injections; and after the washout period). Data for the third time point only are shown. The levels of Aβ peptides (Aβ40 or Aβ42) in the brain and plasma were assessed by ELISA assay. All of the Aβ in the brain (including Aβ in plaques) was extracted in 70% formic acid (FA). The levels of Aβ peptides in GM1 or gelsolin treated mice were compared with those of vehicle treated controls.
(§6) This correlates with a statistically significant increase in peripheral Aβ40 and Aβ42 at the same time point. For gelsolin, there was also a significant decrease in Aβ42, which correlated with a statistically significant increase in peripheral Aβ, thus confirming that the general principle of Aβ sequestration in the periphery being linked to reduction of Aβ in the CNS holds true for very different types of compounds that have the unifying property of being able to bind Aβ in the blood.

Aβ40 [6] = target: T2, Aβ40; experiment: Plasma Abeta40 load (ELISA) in PS/APP mice after peripheral GM1 or gelsolin; settings: ip every two days for two weeks, third time point (after wash-out), vehicle = 100 ± 21
Protocol: as §3, §4
(§7) The levels of Aβ in the peripheral blood were tested at three time points during the drug administration period (i.e., after 1 week of injections; after two weeks of injections; and after the washout period). […] The levels of Aβ peptides (Aβ40 or Aβ42) in the brain and plasma were assessed by ELISA assay. […]

Aβ42 [7] = target: T1, Aβ42; experiment: Brain Abeta42 load (70% formic acid extract, ELISA) in PS/APP mice after peripheral GM1 or gelsolin; settings: 1 week wash-out; for brain Abeta load, Abeta42: ip every two days for two weeks from 9 weeks of age, sacrificed at 12 weeks, FA-soluble brain fraction; for brain Abeta42 load compared with controls (vehicle): ip every two days for two weeks, % of vehicle
Protocol: as §3, §4, §5, §6

Aβ = experiment: GM1 introduced directly into the brain of transgenic mice, Aβ levels
Chain of Aβ (P05067 672-711 limits assumed): as above
Text: Neither GM1 nor gelsolin is known to cross into the brain from the periphery to any degree. […] This is the first time that such a result has been shown for a peripherally administered compound that is not an antibody. As such, the invention affords a significant advantage to the art by describing and promoting Aβ-binding compounds that require neither penetration of the brain nor the evocation of an immune response, which are potentially harmful and ineffective ways to modulate the risk of AD in human patients.

Aβ42 [8] = target: T1, Aβ42; experiment: Plasma Abeta42 load (ELISA) in PS/APP mice after peripheral GM1 or gelsolin; settings: ip every two days for two weeks, third time point (after wash-out), vehicle = 100 ± 7
Protocol: as §3, §4, §7

## O=C([O-])c1cc(N=Nc2ccc(-c3ccc(N=Nc4ccc(O)c(C(=O)[O-])c4)cc3)cc2)ccc1O.[Na+].[Na+] [CG, 5,5′-[(1,1′ biphenyl)-4,4′-diylbis(azo)]bis [2-hydroxybenzoic acid]disodium salt]
Aβ42 [1]
  brain Aβ42: 540 ± 271 fmol/mL
Aβ42 [2]
  plasma Aβ42 level: 331 ± 10 % of control
Aβ42 [3]; 2.5 hours after injection
  plasma Aβ42 level: 110 ± 8 (p = 0.232) % of pre-treatment time point
Aβ42 [3]; 5 hours after injection
  plasma Aβ42 level: 125 ± 8 (p = 0.049) % of pre-treatment time point
Aβ42 [3]; 7.5 hours after injection
  plasma Aβ42 level: 125 ± 7 (p = 0.034) % of pre-treatment time point
Aβ42 [3]; 24 hours after injection
  plasma Aβ42 level: 112 ± 13 (p = 0.341) % of pre-treatment time point
Aβ42 [3]; 48 hours after injection
  plasma Aβ42 level: 111 ± 10 (p = 0.256) % of pre-treatment time point
Aβ40 [4]
  brain Aβ40: 541 ± 50 fmol/mL

## GM1
Aβ40 [5]
  brain Abeta load, Abeta40: 2147 ± 226 fmole/mg protein
  brain Abeta40 load compared with controls (vehicle): 59%
Aβ40 [6]
  plasma Abeta load, Abeta40: 177 ± 29 fmole/ml plasma
Aβ42 [7]
  brain Abeta load, Abeta42: 2990 ± 410 fmole/mg protein
  brain Abeta42 load compared with controls (vehicle): 73%
Aβ
  change in Aβ levels: no change in Aβ levels was observed
Aβ42 [8]
  plasma Abeta load, Abeta42: 124 ± 11 fmole/ml plasma

## gelsolin
Aβ40 [5]
  brain Abeta load, Abeta40: 3473 ± 673 fmole/mg protein
  brain Abeta40 load compared with controls (vehicle): 96%
Aβ40 [6]
  plasma Abeta load, Abeta40: 218 ± 87 fmole/ml plasma
Aβ42 [7]
  brain Abeta load, Abeta42: 2473 ± 167 fmole/mg protein
  brain Abeta42 load compared with controls (vehicle): 60%
Aβ42 [8]
  plasma Abeta load, Abeta42: 153 ± 35 fmole/ml plasma
